{"source": "patent US4920129A", "about": "“Anti-ulcerative imidazopyridine compounds” (Fujisawa Pharmaceutical Company, Ltd., priority 1987, dated 1990)", "key": {"stress ulcer": {"system": "stress ulcer", "assay": "Inhibition on stress ulcer (water-bath immobilization)", "format": "in vivo, Sprague-Dawley rats", "details": "32 mg/kg, oral, just before immobilization; 7 hours; rats", "method": "INHIBITION ON STRESS ULCER\nFive Sprague-Dawley rats weighing about 200 g were used per group. Each animal was immobilized in a small cage and put in a water bath allowing to respire. The temperature of the water bath kept at 22° C. The test compound was administered orally just before the immobilization. Seven hours later, the animals were sacrificed and their stomachs were removed. The stomach was then fixed with 2% formalin. The area of ulcers was measured for each animal. The mean area (mm^2) in the medicated animals was compared with that in the control animals."}, "[1]": {"system": "gastrin-stimulated acid secretion", "assay": "Effect on gastrin-stimulated acid secretion in Heidenhain pouch dogs", "format": "in vivo", "details": "3.2 mg/kg, oral, tetragastrin 10 μg/kg/hr infusion, gastric juice collected 3 hr after drug", "method": "EFFECT ON GASTRIN-STIMULATED ACID SECRETION IN HEIDENHAIN POUCH DOGS\nDogs equipped with Heidenhain pouches were placed on tables and restrained minimally in pavlov slings. Gastrin(tetragastrin) in 0.9% saline was continuously infused through the cephalic vein at a dose of 10 μg/kg/hr over a 5- to 6-hr period in a volume of 0.1 ml/kg/min. After acid secretion had reached a plateau (usually within 2 hr), drug was given orally in a volume of 1 ml/kg. Gastric juice was collected at 15 min intervals for 1 hr before and for 3 hr after drug administration. The volume of each sample was determined, and an aliquot was titrated to pH 7.0 with 0.1M NaOH. Acid output was expressed as μEq H^+ /15 min. The effect of drug was described as percent drug-induced change in acid secretion."}}}
{"smiles": "C#CCc1c(C)nc2c(NCc3c(C)cccc3NC(=O)OC)cccn12", "note": "[(1), 8-(2-Methyl-6-methoxycarbonylaminobenzylamino)-3-(2-propynyl)-2-methylimidazo[1,2-a]pyridine]", "values": [{"measurement": "Inhibition % (area of ulcers)", "setting": "stress ulcer", "value": 100, "unit": "%"}, {"measurement": "Maximum inhibition % (acid secretion)", "setting": "[1]", "value": 100, "unit": "%"}]}
